Reference: US20230159436A1, “APPLICATIONS OF AMIDE ANALOGS OF TRITERPENES IN CURES OF CANCER AND OTHER DISEASES” (Pacific Arrow Limited, priority 2021, published 2023)

Columns and labels:
[1] = test system: HTB-9; assay: MTT assay, bladder (HTB-9); type: cell-based
Experimental: (§1) Cells. HTB-9 (bladder), HeLa-S3 (cervix), DU145 (prostate), H460 (lung), MCF-7 (breast), K562 (leukemia), HCT116 (colon), HepG2 (liver), U2OS (bone), T98G (brain), SK-MEL-5 (Skin) and OVCAR 3, ES2 (ovary), Pancreas (Capan), Mouth (KB), Kidney (A498).
(§2) MTT Assay. The procedure for MTT assay followed the method described by Carmichael et al. (1987) with modifications. The cells were seeded into a 96-well plate at for 24 hours before drug-treatment. The cells were then exposed to the drugs for 48, 72, or 96 hours. After the drug-treatment, MTT (0.5 mg/mL) was added to cultures and incubated for an hour. The formazan (product of the reduction of tetrazolium by viable cells) formed and was dissolved with DMSO and the O.D. at 490 nm, and was measured by an ELISA reader. The MTT level of the cells before drug-treatment was also measured (T0). The % cell-growth (% G) is calculated as: % G=(TD−T0/TC−T0)×100(1), where TC or TD represents O.D. readings of control or drug-treated cells.
(§3) When T0>TD, then the cytotoxicity (LC) expressed as % of the control is calculated as: % LC=(TD−T0/T0)×100(2).

[2] = test system: KB cells; assay: MTT assay, mouth (KB); type: cell-based
Experimental: as §1, §2, §3

[3] = test system: MCF-7; assay: MTT assay, breast (MCF-7); type: cell-based
Experimental: as §1, §2, §3

[4] = test system: K562; assay: MTT assay, leukemia (K562); type: cell-based, human
Experimental: as §1, §2, §3

[5] = test system: HeLa; assay: MTT assay, cervix (HeLa); type: cell-based
Experimental: as §1, §2, §3

[6] = Pharmacokinetic (PK) study: blood from cutting tail; type: in vivo, mice; conditions: IP 100 mg/kg, estimated
Experimental: Pharmacokinetic (PK) Study: Blood from Cutting Tail • Method: • Drug-Treatment: • Mice: CD-1 female mice (6-7 weeks, 23-25 g) • mice were injected (IP) with Test drug sample (10 mg/ml, in […] at a dose of 100 mg/kg. • Blood was obtained from a mouse by cut-tail at 0.5, 2 and 4 hours after drug treatments. • At 24 hours after the drug treatment, mice were anesthetized with isoflurane and blood was obtained with cardiac puncture. Animals were then euthanized by cervical dislocation. • Plasma Isolation: • Blood (50-100 ul) was centrifuged (2000 g, 15 minutes). Plasma was collected from the top layer. • 1 volume of plasma was mixed with 3 volume of acetonitrile/0.005% TFA. Mixture was stored in refrigerator overnight. • Sample was centrifuged (16000 g,10 minutes). Supernatant (called Plasma in 75% AN/TFA soluble fractions) was collected and subjected to HPLC analysis. • HPLC Analysis Conditions: • Column: C18 μBondapak • Solvent: 60% acetonitrile/0.005% TFA (Trifluoroacetic acid) • Gradient: isocratic • Flow rate and run time: 1 ml/min for 30 minutes • Detection wavelength: 207 nm • O.D. range: 0.05 full scale • Calculation: • Standard cures of Test Drug is constructed (Area/3000K=1 ug Test Drug) • Area of Test Drug Peak from Sample is Recorded • Amount of Test Drug was calculated according to standard cures.

[7] = Pharmacokinetic (PK) study: blood from cardiac puncture; type: in vivo, mice; conditions: IP 100 mg/kg, estimated
Experimental: Pharmacokinetic (PK) Study: Blood from Cardiac Puncture • Method: • Drug-Treatment: • Mice: CD-1 female mice (8-10 weeks, 25-30 g) • mice were injected (IP) with Test Drug (10 mg/ml, in 10% DMSO-20% Tween-80 in PBS) at a dose of 100 mg/kg. • At 1 and 2 hours after drug treatments, individual animals were anesthetized with isoflurane. • blood was obtained by cardiac puncture (between the chest-ribs bones). Animals were then euthanized by cervical dislocation. • Plasma Isolation: • Blood (0.6-0.8 ml) was centrifuged (2000 g, 15 minutes). Plasma was collected from the top layer. • 1 volume of plasma was mixed with 3 volume of acetonitrile/0.005% TFA. Mixture was stored in −20° C. for 6 minutes. • Sample was centrifuged (16000 g, 10 minutes). Supernatant was subjected to HPLC analysis. • HPLC Analysis Conditions: • Column: C18 μBondapak • Solvent: 60% acetonitrile/0.005% TFA (Trifluoroacetic acid) • Gradient: isocratic • Flow rate and run time: 1 ml/min for 30 minutes • Detection wavelength: 207 nm • O.D. range: 0.05 full scale • Calculation: • Standard cures of Test Drug is constructed (Area/3000K=1 ug Test Drug) • Area of Test Drug peak from Sample is Recorded • Amount of Test Drug was calculated according to standard cures.

[8] = test system: K562 cells; assay: Inhibition of leukemia K562 cells growth (cell count); type: cell-based, human
Experimental: Method: • 1. Cells: Human leukemia cells K562 in RPMI1640 medium. • 2. Drug: Tig-S (1000× stock solution in DMSO). • 3. Start cells concentration: 50×10K per ml (500000/ml). • 4. Cells were cultured with or without drug for total of four days. • 5. Cell number is doubled after 2 days of incubation. Fresh medium (equal volume, with or without drug) was then added to culture. • 6. Cells were counted every day.

[9] = test system: K562 cells; assay: Apoptosis in K562 cells (Annexin V / propidium iodide); type: cell-based, human
Experimental: Experiment 34: Apoptosis in K562 Cells Induced by Tig-S • 1. Cells: Human leukemia cells K562 cultured in RPMI1640 medium. • 2. Drug: Tig-S (1000× stock solution in DMSO). • 3. Start cells concentration: 500000/ml. • 4. Cells were cultured with drug (0-20 ug/ml) for Two days. • 5. Collect cells from culture (1-4 million) by centrifugation (136×g for 5 min. remove supernatant). • 6. Wash cells with 1 ml of cold PBS, collect cells by centrifugation (136×g, 5 min, remove supernatant). • 7. Re-suspend cells in 200 ul Binding buffer (10 mM HEPES, 140 mM NaCl, 2.5 mM CaCl2, pH 7.4). • 8. Stained cells by adding 10 ul Annexin V (Alexa Fluor 488, Invitrogen cat #A13201), and 2 ul Propidium iodide (1 mg/ml in water) to cell suspension. Mix. • 9. Sit at Room temperature for 15 min. • 10. Wash cells with 1 ml binding buffer. Collect cells by centrifugation. • 11. Re-suspend cells with in 1 ml of binding buffer for analysis by flow cytometry. • 12. Flow Cytometry analysis was performed in Baylor Core Facility with a LSRII instrument. • 13. Analysis: Control cells stained with PI or Annexin V-488 (Annexin V-FITC) alone were served as references. About 50000 cells were analyzed for each sample. • 14. Cell distribution in following groups: live, early apoptosis, late-apoptosis, total apoptosis and dead cells were determined. • 15.

Row | Structure (SMILES) | IC50 of bladder (HTB-9) [1] | IC50 of mouth (KB) [2] | IC50 of breast (MCF-7) [3] | IC50 of leukemia (K562) [4] | IC50 of cervix (HeLa) [5] | half-life [6] | half-life [7] | No grow (IC100) ([8]; beginning on day 2) | IC50, inhibition of Leukemia K562 cells growth ([8]; cell count, up to four days) | mechanism of cell-death [9]
1 | CC=C(C)C(=O)OCC1(C)C(O)CCC2(C)C1CCC1(C)C2CC=C2C3CC(C)(C)C(O)C(O)C3(COC(=O)C(C)=CC)C(O)CC21C (stereo not drawn) [Tig-R, 24,28-O-Tigloyl-3β,16α,21β,22α,24β,28-hexahydroxyolean-12-ene] | 2.5 µg/mL | 3 µg/mL | 4.5 µg/mL | 2 µg/mL | 5 µg/mL | about one | about one | – | – | –
2 | CC=C(C)C(=O)OCC1(C)C(O)CCC2(C)C1CCC1(C)C2CC=C2C3CC(C)(C)C(OC(=O)C(C)=CC)C(O)C3(CO)C(O)CC21C (stereo not shown) [Tig-S] | – | – | – | – | – | – | – | ≥ 2.5 µg/mL | about 0.6 ug/ml | induces cell-death by the apoptosis mechanism
